Reference: patent publication US11566057B2, “Long-acting co-agonists of the glucagon and GLP-1 receptors” (Merck Sharp & Dohme Corp., priority 2017, dated 2023)
Like-named read-outs stand apart in the source and are kept apart here. Numbered stars: 1 amine (or outer) side, 2 acyl side, 3 side chain; on linkers, the order of the positions; unused ones are H or OH. Square brackets hold non-standard residues; d marks the D form. Side chains are listed from the residue outwards. Peptide text beside a SMILES is read from it. * marks the point of attachment. C16 diacid = O=C(O)CCCCCCCCCCCCCCC(=O)*; γGlu = O=C(O)[C@H](CCC(=O)[*:2])N[*:1]; Met(O2) = CS(=O)(=O)CC[C@H](N)C(=O)O; AEEA = NCCOCCOCC(=O)O; Aib = CC(C)(N)C(=O)O

Columns and labels:
human GLP1R = biological target: T1, human GLP1R (Homo sapiens, UniProt P43220); assay: cAMP activity assay at the GLP-1 receptor (GLP1R); type: cell-based
T1 construct: expressed in transfected cells; growth medium holds Blasticidin and Hygromycin
Procedure, shortened: (§1)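 Peptides serially diluted from DMSO (10 points) and added to frozen-stock cells bearing human GLP1R (10,000 cells/well) or GCGR (30,000 cells/well), 1 h at RT, dark. EC50 by four-parameter logistic fit of HitHunter cAMPXS luminescence, read following overnight RT incubation.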

human GCGR = biological target: T2, human GCGR (Homo sapiens, UniProt P47871); assay: cAMP activity assay at the Glucagon receptor (GCGR); type: cell-based; conditions: for hGCGR/hGLP1R (hTone): ratio of GCGR EC50 to GLP1R EC50
T2 construct: expressed in transfected cells; growth medium holds Blasticidin and Hygromycin
Procedure, shortened: as §1

[1] = summary statement: EC50 at each of the glucagon and GLP-1 receptors, read-out: EC50 at the GLP-1 receptor
[2] = cells expressing human GCGR, cAMP production, buffer with or without 20% human serum (not stated which), read-out: GCGR EC50 human
[3] = summary statement: EC50 at each of the glucagon and GLP-1 receptors, read-out: EC50 at the glucagon receptor

T2 sequence (P47871 26-477): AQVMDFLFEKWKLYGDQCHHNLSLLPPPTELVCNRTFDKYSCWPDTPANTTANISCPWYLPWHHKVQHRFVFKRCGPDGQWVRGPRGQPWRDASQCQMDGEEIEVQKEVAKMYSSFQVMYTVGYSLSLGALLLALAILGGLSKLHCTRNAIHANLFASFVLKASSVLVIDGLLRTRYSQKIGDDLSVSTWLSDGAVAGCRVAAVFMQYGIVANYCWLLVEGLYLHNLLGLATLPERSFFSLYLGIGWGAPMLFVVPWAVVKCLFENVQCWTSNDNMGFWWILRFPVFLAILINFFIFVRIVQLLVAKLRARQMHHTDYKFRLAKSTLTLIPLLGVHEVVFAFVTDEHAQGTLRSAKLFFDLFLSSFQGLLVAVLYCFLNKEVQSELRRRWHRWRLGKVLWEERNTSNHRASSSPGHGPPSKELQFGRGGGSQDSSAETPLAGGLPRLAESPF
T1 sequence (P43220 24-463): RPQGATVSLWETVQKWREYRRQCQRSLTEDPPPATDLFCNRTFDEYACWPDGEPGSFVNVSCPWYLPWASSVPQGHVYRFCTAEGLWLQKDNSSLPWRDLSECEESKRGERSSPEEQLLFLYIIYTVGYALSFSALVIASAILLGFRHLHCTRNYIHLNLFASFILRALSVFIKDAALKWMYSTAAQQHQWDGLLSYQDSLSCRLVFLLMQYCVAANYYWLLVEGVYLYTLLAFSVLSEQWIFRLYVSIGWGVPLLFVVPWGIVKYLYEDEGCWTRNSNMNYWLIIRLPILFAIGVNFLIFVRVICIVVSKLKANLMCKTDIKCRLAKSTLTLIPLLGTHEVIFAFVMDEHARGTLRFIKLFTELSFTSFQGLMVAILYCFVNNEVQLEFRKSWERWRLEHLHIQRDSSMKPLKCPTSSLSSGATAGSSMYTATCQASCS

**Q.** `CC(C)C[C@H](NC(=O)[C@H](Cc1c[nH]c2ccccc12)NC(=O)[C@H](CCCCNC(=O)COCCOCCNC(=O)COCCOCCNC(=O)CC[C@H](NC(=O)CCCCCCCCCCCCCCC(=O)O)C(=O)O)NC(=O)[C@@H](NC(=O)[C@H](Cc1ccccc1)NC(=O)[C@H](CC(=O)O)NC(=O)[C@H](CCC(N)=O)NC(=O)[C@H](C)NC(=O)[C@H](C)NC(=O)[C@H](CCCNC(=N)N)NC(=O)C(C)(C)NC(=O)[C@H](CC(=O)O)NC(=O)[C@H](CC(C)C)NC(=O)[C@H](Cc1ccc(O)cc1)NC(=O)[C@H](CCCCN)NC(=O)[C@H](CO)NC(=O)[C@H](Cc1ccc(O)cc1)NC(=O)[C@H](CC(=O)O)NC(=O)[C@H](CO)NC(=O)[C@@H](NC(=O)[C@H](Cc1ccccc1)NC(=O)[C@@H](NC(=O)CNC(=O)[C@H](CCC(N)=O)NC(=O)C(C)(C)NC(=O)[C@@H](N)Cc1c[nH]cn1)[C@@H](C)O)[C@@H](C)O)C(C)C)C(=O)N[C@@H](CCS(C)(=O)=O)C(=O)N[C@@H](CC(=O)O)C(=O)N[C@H](C(N)=O)[C@@H](C)O` [TP811] (H-H[Aib]QGTFTSDYSKYLD[Aib]RAAQDFVK([AEEA-AEEA-γGlu-C16 diacid])WL[Met(O2)]DT-NH2; N-terminus assumed) was tested. Which EC50 (human GLP1R; cells expressing human GLP1R, cAMP production, buffer with or without 20% human serum (not stated which), read-out: GLP1R EC50 human) did it give?
**A.** The EC50 was 0.26 nM.

**Q.** What about the EC50 (human GLP1R; [1]) of the same molecule?
**A.** The EC50 was < 5 nM.

**Q.** And the EC50 (human GCGR; [2])?
**A.** Its EC50 is 0.21 nM.

**Q.** What about the “hGCGR/hGLP1R (hTone)” value (human GCGR) of the same molecule?
**A.** Its value is 0.8.

**Q.** And the EC50 (human GCGR; [3])?
**A.** The EC50 was < 5 nM.

**Q.** Which results are given for `CC(C)C[C@H](NC(=O)[C@H](Cc1ccc(O)cc1)NC(=O)[C@H](CCCCN)NC(=O)[C@H](CO)NC(=O)[C@H](Cc1ccc(O)cc1)NC(=O)[C@H](CC(=O)O)NC(=O)[C@H](CO)NC(=O)[C@@H](NC(=O)[C@H](Cc1ccccc1)NC(=O)[C@@H](NC(=O)CNC(=O)[C@H](CCC(N)=O)NC(=O)C(C)(C)NC(=O)[C@@H](N)Cc1c[nH]cn1)[C@@H](C)O)[C@@H](C)O)C(=O)N[C@@H](CC(=O)O)C(=O)N[C@@H](C)C(=O)N[C@@H](CCCNC(=N)N)C(=O)N[C@@H](C)C(=O)N[C@@H](C)C(=O)N[C@@H](CCCCNC(=O)COCCOCCNC(=O)COCCOCCNC(=O)CC[C@H](NC(=O)CCCCCCCCCCCCCCC(=O)O)C(=O)O)C(=O)N[C@@H](CCC(=O)O)C(=O)N[C@@H](Cc1ccccc1)C(=O)N[C@H](C(=O)N[C@@H](CCC(N)=O)C(=O)N[C@@H](Cc1c[nH]c2ccccc12)C(=O)N[C@@H](CC(C)C)C(=O)N[C@@H](CCS(C)(=O)=O)C(=O)N[C@@H](CC(=O)O)C(=O)N[C@H](C(N)=O)[C@@H](C)O)C(C)C` [TP812] (H-H[Aib]QGTFTSDYSKYLDARAAK([AEEA-AEEA-γGlu-C16 diacid])EFVQWL[Met(O2)]DT-NH2)?
**A.** EC50 (human GLP1R; [1]): < 5 nM; EC50 (human GCGR; [2]): 0.2 nM; hGCGR/hGLP1R (hTone) (human GCGR): 2.3; EC50 (human GCGR; [3]): < 5 nM

**Q.** Which results are given for `CC(C)C[C@H](NC(=O)[C@H](Cc1ccc(O)cc1)NC(=O)[C@H](CCCCN)NC(=O)[C@H](CO)NC(=O)[C@H](Cc1ccc(O)cc1)NC(=O)[C@H](CC(=O)O)NC(=O)[C@H](CO)NC(=O)[C@@H](NC(=O)[C@H](Cc1ccccc1)NC(=O)[C@@H](NC(=O)CNC(=O)[C@H](CCC(N)=O)NC(=O)C(C)(C)NC(=O)[C@@H](N)Cc1c[nH]cn1)[C@@H](C)O)[C@@H](C)O)C(=O)N[C@@H](CC(=O)O)C(=O)N[C@@H](C)C(=O)N[C@@H](CCCNC(=N)N)C(=O)N[C@@H](C)C(=O)N[C@@H](C)C(=O)N[C@@H](CCC(N)=O)C(=O)N[C@@H](CCC(=O)O)C(=O)N[C@@H](Cc1ccccc1)C(=O)N[C@H](C(=O)N[C@@H](CCCCNC(=O)COCCOCCNC(=O)COCCOCCNC(=O)CC[C@H](NC(=O)CCCCCCCCCCCCCCC(=O)O)C(=O)O)C(=O)N[C@@H](Cc1c[nH]c2ccccc12)C(=O)N[C@@H](CC(C)C)C(=O)N[C@@H](CCS(C)(=O)=O)C(=O)N[C@@H](CC(=O)O)C(=O)N[C@H](C(N)=O)[C@@H](C)O)C(C)C` [TP813] (H-H[Aib]QGTFTSDYSKYLDARAAQEFVK([AEEA-AEEA-γGlu-C16 diacid])WL[Met(O2)]DT-NH2; N-terminus assumed)?
**A.** EC50 (human GLP1R; [1]): < 5 nM; EC50 (human GCGR; [2]): 0.21 nM; hGCGR/hGLP1R (hTone) (human GCGR): 1.6; EC50 (human GCGR; [3]): < 5 nM
